# Results as given in ChEMBL document CHEMBL5550167, “Emerging trends in small molecule inhibitors targeting aldosterone synthase: A new paradigm in cardiovascular disease treatment” (Eur J Med Chem, 2024).
# Tested on: not listed separately
# Assay: Metabolic stability in human liver microsomes assessed as half life measured upto 60 mins by LC/MS-MS analysis
# Type: ADME, Microsome
row,half-life,Structure (SMILES)
1,2 h,Cc1nnc2n1-c1ccc(-c3cncc([C@](C)(O)C(F)(F)F)c3)cc1CC2

# Molecular target: T1, Cytochrome P450 11B2, mitochondrial (Homo sapiens, UniProt P19099)
# T1 sequence (P19099 whole entry): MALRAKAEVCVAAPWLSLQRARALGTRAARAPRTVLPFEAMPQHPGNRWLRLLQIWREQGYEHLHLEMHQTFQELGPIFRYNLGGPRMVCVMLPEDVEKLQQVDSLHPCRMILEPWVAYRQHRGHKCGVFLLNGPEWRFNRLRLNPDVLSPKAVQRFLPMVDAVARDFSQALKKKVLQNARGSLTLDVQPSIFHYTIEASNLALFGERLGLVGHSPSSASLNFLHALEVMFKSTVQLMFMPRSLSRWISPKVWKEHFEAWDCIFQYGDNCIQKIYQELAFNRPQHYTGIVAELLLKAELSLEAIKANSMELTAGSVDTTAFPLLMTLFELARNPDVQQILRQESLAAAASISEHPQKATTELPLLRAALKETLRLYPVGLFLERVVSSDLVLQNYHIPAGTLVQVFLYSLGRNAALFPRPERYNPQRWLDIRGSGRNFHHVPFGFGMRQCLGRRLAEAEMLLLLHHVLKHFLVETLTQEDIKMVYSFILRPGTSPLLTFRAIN
# Assay: Inhibition of CYP11B2 (unknown origin)
# Type: ADME
row,Structure (SMILES),IC50
1,CC1(c2ccccc2)CCc2cncc(-c3ccc(C(F)(F)F)cc3F)c21 (stereo unspecified),33 nM
2,CC(C)CCC1(c2ccccc2Cl)C(=O)N(Cc2ccc(F)cc2)Cc2cncn21 (stereo unspecified),4 nM
3,N#Cc1ccc(-c2cncc3c2CCCC3)cc1,40 nM
4,CS(=O)(=O)COc1cncc(C2COc3c(C#N)cccc3O2)c1 (stereo unspecified),< 10 nM
5,N#Cc1cccc2c1OCC(c1cncc(CN3CCOC3=O)c1)O2 (stereo unspecified),< 10 nM
6,N#Cc1cccc2c1OCC(c1cncc(CN3CCCCS3(=O)=O)c1)O2 (stereo unspecified),< 10 nM
7,N#Cc1cccc2c1OCC(c1cncc(C(O)C3CCOCC3)c1)O2 (stereo unspecified),< 10 nM
8,Cc1nnc2n1-c1ccc(-c3cncc([C@](C)(O)C(F)(F)F)c3)cc1CC2,64 nM
9,CC1(C)CN(Cc2ccccc2)c2ccccc2C1N1C=NCC1CO (stereo unspecified),6 nM
10,CCCC1(c2ccc(C#N)cc2OC)C(=O)N(Cc2ccccc2)Cc2cncn21 (stereo unspecified),4 nM

# The next lines start with the values.
row,IC50,Structure (SMILES)
1,32 nM,CN(C)C(=O)CC1CCCc2c(-c3ccc(C(F)(F)F)cc3F)cncc21 (stereo unspecified)
2,2 nM,O=C(CC1CCc2c(-c3ccc(C(F)(F)F)cc3F)cncc21)N1CCCCC1 (stereo unspecified)
3,2.2 nM,CC(C)NC(=O)CN1CCN(c2cncc(-c3ccc4c(c3)CCO4)n2)C1
4,7 nM,CC1(C)C(=O)Nc2cccc(Cl)c2C1n1cncc1CO (stereo unspecified)
5,3 nM,CNC(=O)Cn1cc(NC(=O)CN2CCN(c3cncc(-c4ccc(Cl)cc4)c3)CC2)cn1

# Molecular target: T1, Cytochrome P450 11B2, mitochondrial
# Assay: Inhibition of human CYP11B2 expressed in human NCI-H295 cells incubated for 48 hrs by radioimmuno assay
# Type: ADME, cell-based
row,IC50,Structure (SMILES)
1,0.5 nM,COc1ccc2c(c1)CC(C)C(c1cncc3ccccc13)=C2 (stereo unspecified)

# Molecular target: T1, Cytochrome P450 11B2, mitochondrial
# Assay: Inhibition of human CYP11B2 stably expressed in G-402 cells
# Type: ADME, cell-based
row,IC50,Structure (SMILES)
1,0.5 nM,Cn1cc(C(=O)N2CC(Oc3cncc(N4C(=O)c5ccc(Cl)cc5C4(C)C)c3)C2)cn1
2,0.23 nM,CCn1cc(C(=O)N2CC3(C2)CN(c2cncc(N4C(=O)c5ccc(Cl)cc5C4(C)C)c2)C3)cn1
3,6.2 nM,Cn1nccc1-c1cncc(N2CCc3cc(Cl)ccc3C2=O)c1Cl

# Molecular target: T2, Cytochrome P450 11B1, mitochondrial (Homo sapiens, UniProt P15538)
# T2 sequence (P15538 whole entry): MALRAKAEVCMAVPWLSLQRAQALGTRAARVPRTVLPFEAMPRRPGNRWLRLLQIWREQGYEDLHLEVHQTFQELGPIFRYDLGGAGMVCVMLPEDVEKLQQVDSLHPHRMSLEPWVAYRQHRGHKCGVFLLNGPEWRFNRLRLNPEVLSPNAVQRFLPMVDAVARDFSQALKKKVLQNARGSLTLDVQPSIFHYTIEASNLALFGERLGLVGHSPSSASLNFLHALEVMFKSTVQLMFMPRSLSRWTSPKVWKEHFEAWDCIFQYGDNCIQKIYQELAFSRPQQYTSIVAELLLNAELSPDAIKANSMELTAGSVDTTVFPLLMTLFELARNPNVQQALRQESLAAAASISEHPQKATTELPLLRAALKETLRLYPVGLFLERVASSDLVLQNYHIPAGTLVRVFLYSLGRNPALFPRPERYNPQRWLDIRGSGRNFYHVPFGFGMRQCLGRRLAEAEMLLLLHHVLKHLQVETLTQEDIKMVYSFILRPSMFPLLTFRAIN
# Assay: (§1) Inhibition of CYP11B1 (unknown origin)
# Type: ADME
row,IC50,Structure (SMILES)
1,738 nM,CC1(c2ccccc2)CCc2cncc(-c3ccc(C(F)(F)F)cc3F)c21 (stereo unspecified)
2,10 nM,O=C(CC1CCc2c(-c3ccc(C(F)(F)F)cc3F)cncc21)N1CCCCC1 (stereo unspecified)
3,107 nM,Cn1c(-c2cccnc2)c(C#N)c2ccc(Cl)cc21
4,81 nM,Cc1c(-c2cccnc2)[nH]c2ccccc12

# Molecular target: T3, CYP11B1 (Homo sapiens, UniProt P15538)
# T3 sequence (P15538 whole entry): T2 sequence (P15538 whole entry)
# Assay: as §1
# Type: ADME
row,IC50,Structure (SMILES)
1,2600 nM,Cc1c(F)cncc1C1COc2c(cccc2C(N)=O)O1 (stereo unspecified)
2,1100 nM,COc1cc2c(cc1-c1cccnc1)CCC(=O)N2C
